Assays:
[1] = system: uterine sarcoma MES-SA cells; test: MTT antiproliferative assay, MES-SA; format: cell-based, human; conditions: Homo sapiens, MES-SA, 48 h treatment, relative to DMSO control, read-out: GI50 in vitro values, MES-SA
Description: (§1) Human mammary carcinoma MCF-7 (ATCC HTB22) cells were cultured in RPMI supplemented with 10% FBS. The U87 cells (ATCC HTB-14) were cultured in DMEM culture medium, while the A549 cells (DSMZ ACC107) were cultured in RPMI culture medium supplemented with 10% heat-inactivated FBS. The GBM Hs683 (ATCC HTB-138) cells were cultivated in DMEM supplemented with 10% FBS. The human uterine sarcoma MES-SA (ATCC CRL1966) and MES-SA/D×5 cells were cultured in RPMI-1640 medium supplemented with 10% FBS with MES SA/D×5 maintained in the presence of 500 nM Doxorubicin (Sigma). SKMEL-28 cells (ATCC HTB72) and U373 GBM cells (ECACC 08061901) were cultured in RPMI culture medium supplemented with 10% heat-inactivated FBS. Cell culture media were supplemented with 4 mM glutamine (Lonza code BE17-605E), 100 μg/mL gentamicin (Lonza code 17-5182), and penicillin-streptomycin (200 units/ml and 200 μg/ml) (Lonza code 17-602E). The MDA-MB-231 (ATCC HTB-26) epithelial mammary adenocarcinoma cells were cultured in Eagle's minimum essential medium (EMEM; Invitrogen) containing 5% fetal calf serum (FCS, Cambrex), 2 mM L-glutamine (Invitrogen), 0.06% HEPES (Invitrogen) and penicillin (50 IU/ml)/streptomycin (50 µg/ml; Invitrogen) at 37° C. in a humidified atmosphere of 5% CO2 in air. Transformed mouse NPCs were cultured in suspension under neurosphere conditions at 37° C. in a humidified atmosphere of […] and 5% CO2 in DMEM F12 (Invitrogen 11320-074) supplemented with 1×B27 supplement (Invitrogen 17504-044), 5% penicillin-streptomycin (Biochrom 10378-017), 10 ng/ml EGF (R&D systems 236-EG), 10 ng/ml FGF (PeproTech 100-18B).
(§2) Antiproliferative properties of the synthesized compounds were evaluated by the MTT assay. All compounds were dissolved in DMSO at a concentration of either 100 μM or 50 μM prior to cell treatment. The cells were trypsinized and seeded at various cell concentrations depending on the cell type. […]

[2] = system: human A549 non-small cell lung cancer (NSCLC); test: MTT antiproliferative assay, A549; format: cell-based
Description: as §1
(§3) Antiproliferative properties of the synthesized compounds were evaluated by the MTT assay. All compounds were dissolved in DMSO at a concentration of either 100 μM or 50 μM prior to cell treatment. The cells were trypsinized and seeded at various cell concentrations depending on the cell type. The cells were grown for 24 h to 72 h, treated with compounds at concentrations ranging from 0.001 to 100 μM and incubated for 48 or 72 h in 100 or 200 μL media depending on the cell line used. The number of experiments and replicates varied depending on the cell line. Cells treated with 0.1% DMSO were used as a negative control; 1 μM PAO was used as a positive control.
(§4) The synthesized C12-Wittig derivatives were evaluated for antiproliferative activities in a panel of cancer cell lines that included apoptosis-resistant human U373 glioblastoma (GBM) (Lefranc et al., 2013), human A549 non-small cell lung cancer (NSCLC) and human SKMEL-28 melanoma (Mathieu et al., 2009) as well as apoptosis-sensitive human Hs683 anaplastic oligodendroglioma (Lefranc et al., 2013) and human MCF-7 breast cancer (Frolova et al., 2013).

[3] = system: MDR uterine sarcoma cell line MES-SA/Dx5; test: MTT antiproliferative assay, MDR MES-SA/Dx5; format: cell-based, human
Description: as §1, §3
Selection of the MES-SA/D×5 cell line was done according to Harker et al. (Harker & Sikic, 1985). The cells were split and allowed to adhere overnight. The next day cells were initially exposed to doxorubicin (DOX) at the concentration of 100 nM, which represented the GI50 concentration. The cells were maintained at this DOX concentration until their growth rate reached that of the untreated cells. The DOX concentration was then increased in two-fold increments following the same growth criteria at each concentration to a final DOX concentration of 500 nM. Each new DOX concentration required approximately 2 passages to reach the growth rate of the untreated cells.
Often, tumors initially respond to chemotherapy but eventually become refractory to the continuing treatment. Such acquired resistance commonly occurs through the development of a multi-drug resistant phenotype (MDR) (Gottesman et al., 2002 and Saraswathy & Gong, 2013) affecting many common chemotherapeutic agents, including the vinca alkaloids (Chen et al., 2000) and taxanes (Geney et al., 2002). In addition, the development of apoptosis resistance and MDR mechanisms is often related and concurrent (Ruefli et al., 2002 and Johnstone et al., 1999), and thus it was of interest to evaluate 5 against MDR cells. Towards this end, the MDR uterine sarcoma cell line MES-SA/D×5, established by growing the parent uterine sarcoma MES-SA in the presence of increasing concentrations of doxorubicin and resistant to multiple functionally and structurally unrelated molecules (Harker & Sikic, 1985), was utilized.

[4] = system: U87 glioblastoma cell cultures; test: MTT growth curves, U87; format: cell-based, human; conditions: apoptosis-resistant U87 GBM; concentrations up to 100 μM
Description: as §1, §2

[5] = system: human U373 glioblastoma (GBM); test: MTT antiproliferative assay, U373; format: cell-based; conditions: Homo sapiens, U373 MG, 72 h treatment, sextuplicates, read-out: GI50 in vitro values, U373
Description: as §1, §3, §4

U373 cells = test: Trypan blue viability assay, U373; format: cell-based, human; conditions: 72 h treatment
Description: FIG. 9. Viability of U373 cells by trypan blue staining. U373 cells were treated for 72 h with 1 or 13 and stained with trypan blue. The experiment was conducted once in triplicate. After having taken pictures, cells were fixed with ice-cold methanol and again stained with trypan blue as internal positive control.
To confirm the results obtained in the videomicroscopy experiments, trypan blue assay was employed to detect necrotic and late apoptotic cells that had lost their plasma membrane integrity (FIG. 9). […] These observations support the results of the MTT assay and provide an explanation for the effectiveness of the C12-Wittig derivatives against cells, which display resistance to apoptosis induction. In contrast, at the concentrations necessary to induce cancer cell death 1 behaves as a toxic fixative compound of little promise as a potential drug.

[6] = system: human MCF-7 breast cancer; test: MTT antiproliferative assay, MCF-7; format: cell-based; conditions: Homo sapiens, MCF7, 72 h treatment, sextuplicates, read-out: GI50 in vitro values, MCF-7
Description: as §1, §3, §4

[7] = system: human Hs683 anaplastic oligodendroglioma; test: MTT antiproliferative assay, Hs683; format: cell-based; conditions: Homo sapiens, Hs 683, 72 h treatment, sextuplicates, read-out: GI50 in vitro values, Hs683
Description: as §1, §3, §4

[8] = system: panel of cancer cell lines (A549, SKMEL-28, MCF-7, U373, Hs683); test: MTT antiproliferative assay, panel of five cancer cell lines; format: cell-based, human; conditions: Homo sapiens; mean over five cell lines, 72 h treatment, MTT assay; read-out: GI50 in vitro values, Mean + SEM
Description: as §3, §4

[9] = system: U373 human glioma cell line; test: Quantitative videomicroscopy, U373; format: cell-based; conditions: at GI50 concentrations (Table 1)
Description: FIG. 8. In vitro videomicroscopic analysis of the anticancer effects of 1 and its C12-Wittig derivatives 5 and 13. The U373 human glioma cell line was treated with polygodial, 5 and 13 at their mean GI50 concentrations (Table 1) or left untreated. Videomicroscopy enabled taking pictures of the culture field every 4 minutes. The experiment was conducted once in triplicate. While the morphology of cells treated with 1 was fixed over time, 5 and 13 exerted cytostatic effects on U373 cells.
In an effort to gain insight into possible mechanisms associated with antiproliferative properties of 1 and the C12-Wittig derivatives, the morphological changes in cells treated with these compounds were studied with computer-assisted phase-contrast microscopy (Luchetti et al., 2012) (quantitative videomicroscopy).

human SKMEL-28 melanoma = test: MTT antiproliferative assay, SKMEL-28; format: cell-based; conditions: Homo sapiens, SK-MEL-28, 72 h treatment, sextuplicates, read-out: GI50 in vitro values, SKMEL-28
Description: as §1, §3, §4

[10] = system: transgenic mouse glioma cells (neurosphere cultures); test: CytoTox-Fluor cytotoxicity assay, neurosphere glioma cultures; format: cell-based; conditions: cdkn2a deletion, PDGFB amplification, TRPV1-deficient; 24 h; 5 at 20 μM, CBD at 10 μM
Description: FIGS. 5A-D. Activity of 5 against neurosphere glioma cell cultures with clinically relevant mutations. Transgenic mouse glioma cells of defined molecular subtypes were generated by forced expression of EGFRvIII (classical GBM subtype), PDGFB (proneural GBM subtype) in cdkn2a-deficient and cdkn2a/TRPV1-doubly deficient subventricular neural precursors (NPC). These primary cell cultures were treated for 24 hours either with 10 μM CBD versus a corresponding vehicle-control (containing 0.01% DMSO) or 20 μM of 5 versus vehicle control (0.02% DMSO). Cytotoxicity was measured 24 h after incubation and base-line cytotoxicity levels in the controls were arbitrarily defined as 1. Read-outs from treated cells were normalized to their respective vehicle controls and -fold change of relative cytotoxicity was calculated. Each bar represents the mean±SD from two independent experiments; statistical significance, as determined by unpaired t-tests, is indicated: *** represents p<0.001; ** p<0.005; * p=0.0257; ns not significant).
Human mammary carcinoma MCF-7 (ATCC HTB22) cells were cultured in RPMI supplemented with 10% FBS. […]
The CytoTox-Fluor cytotoxicity assay from Promega has been used according to manufacturer's instructions. […] After 2 hours of incubation at 37° C., the fluorescence intensity was measured using the Tecan InfiniteF200 fluorescence plate reader (485 nm Ex/520 nm Em). […]

CC(=O)O[C@H]1C(=O)[C@@]2(C)[C@H]([C@H](OC(=O)c3ccccc3)[C@]3(O)C[C@H](OC(=O)[C@H](O)[C@@H](NC(=O)c4ccccc4)c4ccccc4)C(C)=C1C3(C)C)[C@]1(OC(C)=O)CO[C@@H]1C[C@@H]2O [Paclitaxel]
GI50 [1]: 0.007 µM | effect on proliferation/viability of all cells, A549 ([2]; apoptosis-resistant A549 NSCLC, concentrations up to 100 μM): no effect on proliferation of ca. 50% of cells | change of potency against MES-SA/Dx5 MDR cell line as compared with parent MES-SA cells ([3]; 48 h MTT): lost their potency by a factor of a thousand | GI50 ([3]; Homo sapiens, MES-SA/Dx5, 48 h treatment, MTT assay, relative to DMSO control, read-out: GI50 in vitro values, MES-SA/Dx5): 10 µM | effect on proliferation/viability of all cells, U87 [4]: no effect on proliferation of ca. 50% of cells

C#CCCCOC(=O)/C=C/C1=CC[C@H]2C(C)(C)CCC[C@]2(C)[C@H]1C=O [Compound 13]
GI50 [5]: 35 µM | viability by trypan blue staining (U373 cells): still alive after 72 hr of treatment | GI50 [6]: 30 µM | GI50 [7]: 33 µM | GI50 ([2]; Homo sapiens, A549, 72 h treatment, MTT assay, sextuplicates, read-out: GI50 in vitro values, A549): 30 µM | GI50 [8]: 33 ± 1 µM | morphological effect by videomicroscopy [9]: inhibited cancer cell proliferation without inducing cell death | GI50 (human SKMEL-28 melanoma): 36 µM

C=C(C)[C@@H]1CCC(C)=C[C@H]1c1c(O)cc(CCCCC)cc1O [CBD, cannabidiol, reference compound]
cytotoxicity against GBM neurosphere cultures lacking the TRPV1 gene [10]: loses its activity

From patent US20180237362A1, “NOVEL POLYGODIAL ANALOGS FOR THE TREATMENT OF CANCER AND OTHER PROLIFERATIVE DISEASES” (THE BOARD OF REGENTS OF THE UNIVERSITY OF TAXAS SYSTEM, priority 2015, published 2018)
